Experimental data published in patent publication EP3035931B1, “COMPOSITION FOR REDUCING NERVOUS SYSTEM INJURY AND METHOD OF MAKING AND USE THEREOF” (Morehouse School of Medicine, priority 2013, dated 2015).

Legend:
ASIC1^-/- neurons = type: cell-based, mouse; conditions: ASIC1^-/- neurons; n=8 each
Protocol: Following anesthesia with halothane, cerebral cortices were dissected from E16 Swiss mice or P1 ASIC1+/+ and ASIC1-/- mice and incubated with 0.05% trypsin-EDTA for 10 min at 37° C. Tissues were then triturated with fire-polished glass pipettes and plated on poly-L-ornithine-coated 24-well plates or 25x25 mm glass coverslips at a density of 2.5x10^5 cells per well or 10^6 cells per coverslip. Neurons were cultured with MEM supplemented with 10% horse serum (for E16 cultures) or Neurobasal medium supplemented with B27 (for PI cultures) and used for electrophysiology and toxicity studies after 12 days. Glial growth was suppressed by addition of 5-fluoro-2-deoxyuridine and uridine, yielding cultured cells with 90% neurons as determined by NeuN and GFAP staining (data not shown).
Background absorbance at 620 was subtracted.
. […] . In contrast to acid incubation, 1 hr treatment of ASIC1^-/- neurons with 1 mM NMDA+10 µM glycine (in Mg^2+-free [pH 7.4] ECF) induced 84.8% ± 1.4% of maximal LDH release at 24 hr (n=4, FIG. 9C), indicating normal response to other cell injury processes.

ASIC1a = target: T1, ASIC1a (Homo sapiens, UniProt P78348); assay: Blockade of ASIC 1a current expressed in CHO cells; type: cell-based; parameters: expressed in transfected cells; host or cells: CHO; conditions: CHO cells, FIG. 16
T1 sequence (P78348 1-528): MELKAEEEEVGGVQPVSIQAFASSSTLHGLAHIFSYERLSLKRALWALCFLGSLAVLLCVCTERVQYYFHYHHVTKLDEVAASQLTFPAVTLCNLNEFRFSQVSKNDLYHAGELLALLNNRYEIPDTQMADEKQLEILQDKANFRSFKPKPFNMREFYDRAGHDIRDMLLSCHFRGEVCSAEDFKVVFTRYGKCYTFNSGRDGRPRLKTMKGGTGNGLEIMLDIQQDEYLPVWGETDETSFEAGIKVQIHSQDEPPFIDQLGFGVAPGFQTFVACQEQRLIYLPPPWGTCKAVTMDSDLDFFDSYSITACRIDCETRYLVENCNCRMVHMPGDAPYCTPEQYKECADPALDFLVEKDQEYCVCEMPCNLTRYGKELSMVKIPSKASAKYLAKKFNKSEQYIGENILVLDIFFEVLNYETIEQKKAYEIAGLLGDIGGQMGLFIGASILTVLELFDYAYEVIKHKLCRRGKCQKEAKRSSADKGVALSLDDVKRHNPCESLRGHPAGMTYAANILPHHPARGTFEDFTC

## N=C(N)NC(=O)c1nc(Cl)c(N)nc1N [amiloride]
ASIC1^-/- neurons
  effect on acid-induced LDH release after knockout of the ASIC1 gene: eliminated the effect
ASIC1a
  block of ASIC1a current: dose-dependent
